Literature values, collected in patent publication US8648072B2, “Cannabinoid receptor antagonists/inverse agonists useful for treating metabolic disorders, including obesity and diabetes” (Jenrin Discovery, Inc., priority 2009, dated 2014).

Tested on: patients with type 2 diabetes
Settings: after six months of treatment; baseline value of 7.9; placebo group 0.3%

Cc1c(C(=O)NN2CCCCC2)nn(-c2ccc(Cl)cc2Cl)c1-c1ccc(Cl)cc1 [rimonabant]
HbA1c levels lowered: 0.8%
